Like-named read-outs stand apart in the source and are kept apart here.

The nature of data set [1]: Pharmacokinetic evaluation, oral exposure in rats. The format is in vivo. The note with it: male Sprague-Dawley rats, single oral dose 10 mg/kg via oral gavage, plasma. How it is done: Pharmacokinetic studies of select compounds were performed to assess the pharmacokinetic properties. Male Sprague-Dawley rats were administered a single oral dose of the test compound at 10 mg/kg (dose concentration: 2 mg/mL, dose volume: 5 ml/kg) via oral gavage. Blood samples were collected via jugular vein at pre-dose, post-dose 5 min, 15 min, 30 min, 1 h, 2 h, 4 h, 6 h, 8 h, 10 h and 24 h, and centrifuged (8000 rpm for 6 minutes at 2-8° C.). The resulting plasma fractions were analyzed by LC/MS/MS to determine the concentration of the test compound.

Data set [2] concerns the target T1, human Plasma Kallikrein (Homo sapiens (Human), UniProt P03952). Put plainly: In vitro enzyme inhibition of human plasma kallikrein (Pro-Phe-Arg-AMC cleavage). The format is biochemical. Particulars: human plasma kallikrein, PFR-AMC substrate, 37° C.; read-out: hPK IC50. In a few lines:
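Human plasma kallikrein preincubated 5 min at 37 °C with compound in 50 mM Tris-HCl pH 7.5, 150 mM NaCl, 0.01% Triton X-100. Reaction started with Pro-Phe-Arg-AMC, fluorescence read every 43 s for 1 h at 37 °C. IC50 from highest mean velocity over 20 reads (~15 min).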

The target of data set [3] is T1, human Plasma Kallikrein. As to the kind of experiment: Human whole blood kallikrein inhibition (ellagic acid-activated human plasma, Z-FR-2-AMC substrate). Format: biochemical. In a few lines: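 Platelet-depleted human plasma was activated with ellagic acid and diluted in 50 mM Tris-HCl pH 7.2, 150 mM NaCl, 0.01% Triton X-100, then preincubated 15 min at 37 °C. Compounds (0.076 nM–20 μM, duplicates) were added for 5 min at 37 °C. Z-FR-2-AMC (40 μM final) was read kinetically at ex 330/em 440 nm for 60 min, and IC50 was taken from a variable-slope fit.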

Setting [4] is: human plasma activated with ellagic acid, Z-FR-2-AMC 40 μM, 37° C., read-out: HWB EC50.

T1 sequence (P03952 391-638 limits assumed): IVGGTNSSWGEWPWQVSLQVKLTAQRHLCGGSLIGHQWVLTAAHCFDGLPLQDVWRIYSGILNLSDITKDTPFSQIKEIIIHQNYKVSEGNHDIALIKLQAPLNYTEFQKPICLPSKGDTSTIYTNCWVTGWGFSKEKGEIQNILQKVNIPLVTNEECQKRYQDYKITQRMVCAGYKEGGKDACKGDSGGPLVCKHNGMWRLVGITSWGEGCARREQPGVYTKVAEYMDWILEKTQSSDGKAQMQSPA
T1 sequence (P03952 20-390 partner limits assumed): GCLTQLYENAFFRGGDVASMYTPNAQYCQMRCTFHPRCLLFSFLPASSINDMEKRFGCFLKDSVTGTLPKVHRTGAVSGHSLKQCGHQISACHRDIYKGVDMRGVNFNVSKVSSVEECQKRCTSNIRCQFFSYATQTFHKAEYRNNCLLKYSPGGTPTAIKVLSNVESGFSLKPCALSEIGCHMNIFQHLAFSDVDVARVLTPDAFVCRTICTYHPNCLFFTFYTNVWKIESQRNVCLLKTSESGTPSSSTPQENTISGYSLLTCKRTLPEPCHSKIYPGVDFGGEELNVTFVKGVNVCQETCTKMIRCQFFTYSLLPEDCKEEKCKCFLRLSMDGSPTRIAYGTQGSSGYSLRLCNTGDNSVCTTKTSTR

As for `Cc1nc(N)ccc1CNC(=O)c1cn(Cc2ccc3ncc(C4CC4)cc3c2)nc1C#N` [Example 66, N-((6-amino-2-methylpyridin-3-yl)methyl)-3-cyano-1-((3-cyclopropylquinolin-6-yl)methyl)-1H-pyrazole-4-carboxamide], the AUC (usually concentration integrated over time) in data set [1] (rat, read-out: AUC) lay within 100 to 1000 ng·h/mL. The IC50 (in general, the concentration that gives 50% inhibition) at human Plasma Kallikrein [2] is less than 0.1 µM. The EC50 – broadly, the concentration giving half of the maximal effect – on human Plasma Kallikrein [3] (setting [4]) was less than 0.1 µM.
`Cc1cnc2c(C(C)(C)O)cc(Cn3ncc(C(=O)NCc4c(C)cc(N)nc4C)c3C#N)cc2c1` [Example 67, N-((6-amino-2,4-dimethylpyridin-3-yl)methyl)-5-cyano-1-((8-(2-hydroxypropan-2-yl)-3-methylquinolin-6-yl)methyl)-1H-pyrazole-4-carboxamide]: the area under the curve (AUC) in data set [1] (rat, read-out: AUC) was less than 100 ng·h/mL. For the same compound, at human Plasma Kallikrein [2], the IC50 lay within 1 to 10 µM. Besides, on human Plasma Kallikrein [3] (setting [4]), the EC50 was less than 0.1 µM.
On the same counts, the results for `Cc1cc(N)nc(C)c1CNC(=O)c1cn(Cc2cc(C#N)c3ncc(Cl)cc3c2)nc1C#N` [Example 69, N-((6-amino-2,4-dimethylpyridin-3-yl)methyl)-1-((3-chloro-8-cyanoquinolin-6-yl)methyl)-3-cyano-1H-pyrazole-4-carboxamide] are less than 100 ng·h/mL, less than 0.1 µM and less than 0.1 µM.
Take `Cc1cc(N)nc(C)c1CNC(=O)c1cn(Cc2ccc3ncc(C(F)(F)F)cc3c2)nc1C#N` [Example 73, N-((6-amino-2,4-dimethylpyridin-3-yl)methyl)-3-cyano-1-((3-(trifluoromethyl)quinolin-6-yl)methyl)-1H-pyrazole-4-carboxamide]: the AUC in data set [1] (rat, read-out: AUC) is 100 to 1000 ng·h/mL. Besides, at human Plasma Kallikrein [2], the IC50 was less than 0.1 µM. For the same compound, on human Plasma Kallikrein [3] (setting [4]), the EC50 was less than 0.1 µM.
For `Cc1nc(N)ccc1CNC(=O)c1cn(Cc2ccc3ncc(C(F)(F)F)cc3c2)nc1C#N` [Example 74, N-((6-amino-2-methylpyridin-3-yl)methyl)-3-cyano-1-((3-(trifluoromethyl)quinolin-6-yl)methyl)-1H-pyrazole-4-carboxamide], the AUC in data set [1] (rat, read-out: AUC) was 1000 to 10000 ng·h/mL. Moreover, the IC50 on human Plasma Kallikrein [2] is less than 0.1 µM. For the same compound, the EC50 on human Plasma Kallikrein [3] (setting [4]) was less than 0.1 µM.
As for `Cc1cc(N)nc(C)c1CNC(=O)c1nnc(Cc2cc(F)c3ncc(Cl)cc3c2)o1` [Example 75, N-((6-amino-2,4-dimethylpyridin-3-yl)methyl)-5-((3-chloro-8-fluoroquinolin-6-yl)methyl)-1,3,4-oxadiazole-2-carboxamide], the AUC in data set [1] (rat, read-out: AUC) lay within 1000 to 10000 ng·h/mL. In addition, the IC50 on human Plasma Kallikrein [2] is less than 0.1 µM. Further, the EC50 on human Plasma Kallikrein [3] (setting [4]) was less than 0.1 µM.
On to `Cc1cnc2c(C(N)=O)cc(Cn3cc(C(=O)NCc4c(C)cc(N)nc4C)c(C#N)n3)cc2c1` [Example 78, 6-((4-(((6-amino-2,4-dimethylpyridin-3-yl)methyl)carbamoyl)-3-cyano-1H-pyrazol-1-yl)methyl)-3-methylquinoline-8-carboxamide], for which the AUC in data set [1] (rat, read-out: AUC) was less than 100 ng·h/mL. Further, the IC50 on human Plasma Kallikrein [2] was less than 0.1 µM. The EC50 on human Plasma Kallikrein [3] (setting [4]) was less than 0.1 µM.
For the compound `Cc1cnc2ccc(Cn3cc(C(=O)NCc4c(C)cc(N)nc4C)c(C#N)n3)cc2c1` [Example 81, N-((6-amino-2,4-dimethylpyridin-3-yl)methyl)-3-cyano-1-((3-methylquinolin-6-yl)methyl)-1H-pyrazole-4-carboxamide], the exposure (AUC) in data set [1] (rat, read-out: AUC) is 100 to 1000 ng·h/mL. The IC50 on human Plasma Kallikrein [2] was less than 0.1 µM. For the same compound, on human Plasma Kallikrein [3] (setting [4]), the EC50 was less than 0.1 µM.
Regarding `Cc1cnc2ccc(Cn3cc(C(=O)NCc4ccc(N)nc4C)c(C#N)n3)cc2c1` [Example 82, N-((6-amino-2-methylpyridin-3-yl)methyl)-3-cyano-1-((3-methylquinolin-6-yl)methyl)-1H-pyrazole-4-carboxamide], the AUC in data set [1] (rat, read-out: AUC) was 100 to 1000 ng·h/mL. Moreover, on human Plasma Kallikrein [2], the IC50 is less than 0.1 µM. Further, the EC50 at human Plasma Kallikrein [3] (setting [4]) was less than 0.1 µM.
For `Cc1cc(N)nc(C)c1CNC(=O)c1nn(Cc2ccc3ncc(Cl)cc3c2)nc1C#N` [Example 95, N-((6-amino-2,4-dimethylpyridin-3-yl)methyl)-2-((3-chloroquinolin-6-yl)methyl)-5-cyano-2H-1,2,3-triazole-4-carboxamide], the AUC in data set [1] (rat, read-out: AUC) fell in the range of 100 to 1000 ng·h/mL. Besides, the IC50 at human Plasma Kallikrein [2] is less than 0.1 µM. In addition, the EC50 on human Plasma Kallikrein [3] (setting [4]) was less than 0.1 µM.
On to `Cc1cc(N)nc(C)c1CNC(=O)c1nnc(Cc2ccc3ncc(Cl)cc3c2)[nH]1` [Example 96, N-((6-amino-2,4-dimethylpyridin-3-yl)methyl)-5-((3-chloroquinolin-6-yl)methyl)-4H-1,2,4-triazole-3-carboxamide], for which the AUC in data set [1] (rat, read-out: AUC) was more than 10000 ng·h/mL. Also, at human Plasma Kallikrein [2], the IC50 is less than 0.1 µM. Also, at human Plasma Kallikrein [3] (setting [4]), the EC50 was less than 0.1 µM.
Take `Cc1cc(N)nc(C)c1CNC(=O)c1nnc(Cc2ccc3ncc(Cl)cc3c2)n1C` [Example 98, N-((6-amino-2,4-dimethylpyridin-3-yl)methyl)-5-((3-chloroquinolin-6-yl)methyl)-4-methyl-4H-1,2,4-triazole-3-carboxamide]: the AUC in data set [1] (rat, read-out: AUC) lay in the range of 1000 to 10000 ng·h/mL. The IC50 on human Plasma Kallikrein [2] was less than 0.1 µM. In addition, the EC50 on human Plasma Kallikrein [3] (setting [4]) is less than 0.1 µM.
With `COc1cc2c(C(=O)NCc3c(C)cc(N)nc3C)nn(Cc3ccc4ncc(Cl)cc4c3)c2cn1` [Example 122, N-((6-amino-2,4-dimethylpyridin-3-yl)methyl)-1-((3-chloroquinolin-6-yl)methyl)-5-methoxy-1H-pyrazolo[3,4-c]pyridine-3-carboxamide], in data set [1] (rat, read-out: AUC), the AUC is 100 to 1000 ng·h/mL. For the same compound, the IC50 on human Plasma Kallikrein [2] is less than 0.1 µM. This compound also yielded an EC50 at human Plasma Kallikrein [3] of less than 0.1 µM.
Regarding `Cc1cc(N)nc(C)c1CNC(=O)c1cn(Cc2ccc3ncc(Cl)cc3c2)c2cncc(C#N)c12` [Example 123, N-((6-amino-2,4-dimethylpyridin-3-yl)methyl)-1-((3-chloroquinolin-6-yl)methyl)-4-cyano-1H-pyrrolo[2,3-c]pyridine-3-carboxamide], in data set [1] (rat, read-out: AUC), the AUC was less than 100 ng·h/mL. The IC50 at human Plasma Kallikrein [2] was less than 0.1 µM. For the same compound, at human Plasma Kallikrein [3], the EC50 is less than 0.1 µM.
Consider `Cc1cc(N)nc(C)c1CNC(=O)c1cn(Cc2ccc3ncc(Cl)cc3c2)c2nccc(C#N)c12` [Example 127, N-((6-amino-2,4-dimethylpyridin-3-yl)methyl)-1-((3-chloroquinolin-6-yl)methyl)-4-cyano-1H-pyrrolo[2,3-b]pyridine-3-carboxamide], for which the AUC in data set [1] (rat, read-out: AUC) fell in the range of 100 to 1000 ng·h/mL. For the same compound, the IC50 on human Plasma Kallikrein [2] is less than 0.1 µM. This compound also came in with an EC50 on human Plasma Kallikrein [3] of less than 0.1 µM.
Consider `Cc1cc(N)nc(C)c1CNC(=O)c1nn(Cc2ccc3ncc(Cl)cc3c2)c2cncc(C#N)c12` [Example 129, N-((6-amino-2,4-dimethylpyridin-3-yl)methyl)-1-((3-chloroquinolin-6-yl)methyl)-4-cyano-1H-pyrazolo[3,4-c]pyridine-3-carboxamide], for which, in data set [1] (rat, read-out: AUC), the AUC was less than 100 ng·h/mL. The IC50 at human Plasma Kallikrein [2] was less than 0.1 µM. Also, at human Plasma Kallikrein [3], the EC50 is less than 0.1 µM.
For the compound `Cc1cc(N)nc(C)c1CNC(=O)c1cn(Cc2ccc3ncc(Cl)cc3c2)c2cnc(C#N)cc12` [Example 134, N-((6-amino-2,4-dimethylpyridin-3-yl)methyl)-1-((3-chloroquinolin-6-yl)methyl)-5-cyano-1H-pyrrolo[2,3-c]pyridine-3-carboxamide], the AUC result in data set [1] is “BLQ”. The IC50 on human Plasma Kallikrein [2] was less than 0.1 µM. On human Plasma Kallikrein [3], this compound came in with an EC50 of less than 0.1 µM.
`Cc1cc(N)nc(C)c1CNC(=O)c1nn(Cc2ccc3ncc(Cl)cc3c2)c2ccc(=O)[nH]c12` [Example 138, N-((6-amino-2,4-dimethylpyridin-3-yl)methyl)-1-((3-chloroquinolin-6-yl)methyl)-5-oxo-4,5-dihydro-1H-pyrazolo[4,3-b]pyridine-3-carboxamide]: in data set [1] (rat, read-out: AUC), the AUC is less than 100 ng·h/mL. Besides, the IC50 at human Plasma Kallikrein [2] is less than 0.1 µM. Moreover, the EC50 at human Plasma Kallikrein [3] was less than 0.1 µM.
On to `Cc1nc(N)ccc1CNC(=O)c1nn(Cc2ccc3ncc(Cl)cc3c2)c2ccc(=O)[nH]c12` [Example 139, N-((6-amino-2-methylpyridin-3-yl)methyl)-1-((3-chloroquinolin-6-yl)methyl)-5-oxo-4,5-dihydro-1H-pyrazolo[4,3-b]pyridine-3-carboxamide], for which the AUC in data set [1] (rat, read-out: AUC) fell in the range of 100 to 1000 ng·h/mL. Besides, the IC50 on human Plasma Kallikrein [2] is less than 0.1 µM. The EC50 on human Plasma Kallikrein [3] was less than 0.1 µM.
With “N-((6-amino-2,4-dimethylpyridin-3-yl)methyl)-1-((3-chloroquinolin-6-yl)methyl)-3-cyano-1H-pyrazole-4-carboxamide [Example 26]”, the AUC result in data set [1] is on record as “B (>100 ng · h/mL to ≤1000 ng · h/mL)”. Moreover, the IC50 at human Plasma Kallikrein [2] is less than 0.1 µM. Besides, the 50% effective concentration (EC50) on human Plasma Kallikrein [3] (setting [4]) fell in the range of 0.1 to 1 µM.

For the origin of these results see patent publication US10301284B2, “Therapeutic inhibitory compounds” (LifeSci Pharmaceuticals, Inc., priority 2016, dated 2019).
